According to EP0726261A1, “Herbidical 1,2,4 thiadiazoles” (American Cyanamid Company, priority 1995, dated 1996):

Key:
Assay type in all cases: in vivo
Triticum aestivum [1] = assay: Preemergence herbicidal activity (Example 67); set-up: herbicide rating, TRZAW: scale not given here; settings: pre, 800 g/ha
How it was run: (§1)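 Preemergence application: the soil surface is sprayed pneumatically at 3 bar, 400 L/ha, dose 800g/ha. Formulation is acetone with 0.5% alkylphenol/ethylene oxide condensate, then water. Scoring follows a rating scale about 1-3 weeks after spraying.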

Ipomoea hederacea [2] = assay: Preemergence herbicidal activity (Example 67); settings: pre, 800 g/ha
How it was run: as §1

Zea mays [3] = assay: Preemergence herbicidal activity (Example 67); settings: pre, 800 g/ha
How it was run: as §1

Veronica persica [4] = assay: Preemergence herbicidal activity (Example 67); settings: pre, 800 g/ha
How it was run: as §1

Chenopodium album [5] = assay: Preemergence herbicidal activity (Example 67); settings: pre, 800 g/ha
How it was run: as §1

Abutilon theophrasti [6] = assay: Preemergence herbicidal activity (Example 67); settings: pre, 800 g/ha
How it was run: as §1

Helianthus annuus [7] = assay: Preemergence herbicidal activity (Example 67); settings: pre, 800 g/ha
How it was run: as §1

Galium aparine [8] = assay: Preemergence herbicidal activity (Example 67); settings: pre, 800 g/ha
How it was run: as §1

Amaranthus retroflexus [9] = assay: Preemergence herbicidal activity (Example 67); settings: pre, 800 g/ha
How it was run: as §1

Alopecurus myosuroides [10] = assay: Preemergence herbicidal activity (Example 67); set-up: herbicide rating, ALOMY: scale not given here; settings: pre, 800 g/ha
How it was run: as §1

Ipomoea hederacea [11] = assay: Postemergence herbicidal activity (Example 67); settings: pos, 800 g/ha
How it was run: (§2)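 Greenhouse plants, 3-6 weeks old, in horticultural substrate/loamy sand (1:3) received a foliar spray at 800g/ha. Herbicidal effect was scored on a rating scale 10-21 days later.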

Setaria viridis [12] = assay: Postemergence herbicidal activity (Example 67); settings: pos, 800 g/ha
How it was run: as §2

Alopecurus myosuroides [13] = assay: Postemergence herbicidal activity (Example 67); settings: pos, 800 g/ha
How it was run: as §2

Zea mays [14] = assay: Postemergence herbicidal activity (Example 67); settings: pos, 800 g/ha
How it was run: as §2

Triticum aestivum [15] = assay: Postemergence herbicidal activity (Example 67); settings: pos, 800 g/ha
How it was run: as §2

Veronica persica [16] = assay: Postemergence herbicidal activity (Example 67); settings: pos, 800 g/ha
How it was run: as §2

Chenopodium album [17] = assay: Postemergence herbicidal activity (Example 67); settings: pos, 800 g/ha
How it was run: as §2

Hordeum vulgare [18] = assay: Postemergence herbicidal activity (Example 67); settings: pos, 800 g/ha
How it was run: as §2

Abutilon theophrasti [19] = assay: Postemergence herbicidal activity (Example 67); settings: pos, 800 g/ha
How it was run: as §2

Helianthus annuus [20] = assay: Postemergence herbicidal activity (Example 67); settings: pos, 800 g/ha
How it was run: as §2

Galium aparine [21] = assay: Postemergence herbicidal activity (Example 67); settings: pos, 800 g/ha
How it was run: as §2

Amaranthus retroflexus [22] = assay: Postemergence herbicidal activity (Example 67); settings: pos, 800 g/ha
How it was run: as §2

Hordeum vulgare [23] = assay: Preemergence herbicidal activity (Example 67); set-up: herbicide rating, HORVW: scale not given here; settings: pre, 800 g/ha
How it was run: as §1

Setaria viridis [24] = assay: Preemergence herbicidal activity (Example 67); set-up: herbicide rating, SETVI: scale not given here; settings: pre, 800 g/ha
How it was run: as §1

[25] = rated about 1-3 weeks after treatment

`O=C(Nc1ccc(F)cc1)c1nsc(-c2cccc(C(F)(F)F)c2)n1` [Example 63] was tested, and the “TRZ AW rating” value (Triticum aestivum [1]) was 2 (6-15%), the “IPO HE rating” value (Ipomoea hederacea [2]) was 3 (16-29%) and the “ZEA MX rating” value (Zea mays [3]) was 0. The “VER PE rating” value (Veronica persica [4]) was 0, the “CHE AL rating” value (Chenopodium album [5]) was 0 and the “ABU TH rating” value (Abutilon theophrasti [6]) was 0. The “HEL AN rating” value (Helianthus annuus [7]) was 0, the “GAL AP rating” value (Galium aparine [8]) was 0 and the “AMA RE rating” value (Amaranthus retroflexus [9]) was 0. For the same compound, the “ALO MY rating” value (Alopecurus myosuroides [10]) was 4 (30-44%), the “IPO HE rating” value (Ipomoea hederacea [11]) was 0 and the “SET VI rating” value (Setaria viridis [12]) was 3 (16-29%). For the same compound, the “ALO MY rating” value (Alopecurus myosuroides [13]) was 0, the “ZEA MX rating” value (Zea mays [14]) was 0 and the “TRZ AW rating” value (Triticum aestivum [15]) was 0. For the same compound, the “VER PE rating” value (Veronica persica [16]) was 0, the “CHE AL rating” value (Chenopodium album [17]) was 0 and the “HOR VW rating” value (Hordeum vulgare [18]) was 1 (1-5%). The “ABU TH rating” value (Abutilon theophrasti [19]) was 1 (1-5%), the “HEL AN rating” value (Helianthus annuus [20]) was 0 and the “GAL AP rating” value (Galium aparine [21]) was 0. The “AMA RE rating” value (Amaranthus retroflexus [22]) was 0, the “HOR VW rating” value (Hordeum vulgare [23]) was 0 and the “SET VI rating” value (Setaria viridis [24]) was 2 (6-15%).

For `COc1ccc(-c2nsc(C(=O)Nc3cccc4c3CCCC4)n2)cc1` [Example 55], the “TRZ AW rating” value (Triticum aestivum [1]) was 0, the “IPO HE rating” value (Ipomoea hederacea [2]) was 3 (16-29%) and the “ZEA MX rating” value (Zea mays [3]) was 0. The “VER PE rating” value (Veronica persica [4]) was 2 (6-15%), the “CHE AL rating” value (Chenopodium album [5]) was 0 and the “ABU TH rating” value (Abutilon theophrasti [6]) was 1 (1-5%). For the same compound, the “HEL AN rating” value (Helianthus annuus [7]) was 0, the “GAL AP rating” value (Galium aparine [8]) was 0 and the “AMA RE rating” value (Amaranthus retroflexus [9]) was 0. The “ALO MY rating” value (Alopecurus myosuroides [10]) was 0, the “IPO HE rating” value (Ipomoea hederacea [11]) was 0 and the “SET VI rating” value (Setaria viridis [12]) was 4 (30-44%). For the same compound, the “ALO MY rating” value (Alopecurus myosuroides [13]) was 0, the “ZEA MX rating” value (Zea mays [14]) was 3 (16-29%) and the “TRZ AW rating” value (Triticum aestivum [15]) was 1 (1-5%). The “VER PE rating” value (Veronica persica [16]) was 0, the “CHE AL rating” value (Chenopodium album [17]) was 0 and the “HOR VW rating” value (Hordeum vulgare [18]) was 2 (6-15%). For the same compound, the “ABU TH rating” value (Abutilon theophrasti [19]) was 0, the “HEL AN rating” value (Helianthus annuus [20]) was 2 (6-15%) and the “GAL AP rating” value (Galium aparine [21]) was 3 (16-29%). For the same compound, the “AMA RE rating” value (Amaranthus retroflexus [22]) was 0, the “HOR VW rating” value (Hordeum vulgare [23]) was 0 and the “SET VI rating” value (Setaria viridis [24]) was 0.

With `O=C(Nc1cccc(F)c1)c1nsc(-c2cccc(C(F)(F)F)c2)n1` [Example 65] the “TRZ AW rating” value (Triticum aestivum [1]) was 2 (6-15%), the “IPO HE rating” value (Ipomoea hederacea [2]) was 3 (16-29%) and the “ZEA MX rating” value (Zea mays [3]) was 0. For the same compound, the “VER PE rating” value (Veronica persica [4]) was 0, the “CHE AL rating” value (Chenopodium album [5]) was 1 (1-5%) and the “ABU TH rating” value (Abutilon theophrasti [6]) was 3 (16-29%). For the same compound, the “HEL AN rating” value (Helianthus annuus [7]) was 0, the “GAL AP rating” value (Galium aparine [8]) was 0 and the “AMA RE rating” value (Amaranthus retroflexus [9]) was 0. For the same compound, the “ALO MY rating” value (Alopecurus myosuroides [10]) was 4 (30-44%), the “IPO HE rating” value (Ipomoea hederacea [11]) was 1 (1-5%) and the “SET VI rating” value (Setaria viridis [12]) was 0. For the same compound, the “ALO MY rating” value (Alopecurus myosuroides [13]) was 1 (1-5%), the “ZEA MX rating” value (Zea mays [14]) was 0 and the “TRZ AW rating” value (Triticum aestivum [15]) was 3 (16-29%). The “VER PE rating” value (Veronica persica [16]) was 0, the “CHE AL rating” value (Chenopodium album [17]) was 0 and the “HOR VW rating” value (Hordeum vulgare [18]) was 1 (1-5%). For the same compound, the “ABU TH rating” value (Abutilon theophrasti [19]) was 0, the “HEL AN rating” value (Helianthus annuus [20]) was 0 and the “GAL AP rating” value (Galium aparine [21]) was 0. The “AMA RE rating” value (Amaranthus retroflexus [22]) was 0, the “HOR VW rating” value (Hordeum vulgare [23]) was 0 and the “SET VI rating” value (Setaria viridis [24]) was 0.

For `O=C(NC1CCCc2ccccc21)c1nc(-c2ccccc2F)ns1` (racemic) [Example 53], the “TRZ AW rating” value (Triticum aestivum [1]) was 1 (1-5%), the “IPO HE rating” value (Ipomoea hederacea [2]) was 0 and the “ZEA MX rating” value (Zea mays [3]) was 0. For the same compound, the “VER PE rating” value (Veronica persica [4]) was 6 (65-79%), the “CHE AL rating” value (Chenopodium album [5]) was 0 and the “ABU TH rating” value (Abutilon theophrasti [6]) was 0. The “HEL AN rating” value (Helianthus annuus [7]) was 0, the “GAL AP rating” value (Galium aparine [8]) was 0 and the “AMA RE rating” value (Amaranthus retroflexus [9]) was 3 (16-29%). For the same compound, the “ALO MY rating” value (Alopecurus myosuroides [10]) was 0, the “IPO HE rating” value (Ipomoea hederacea [11]) was 2 (6-15%) and the “SET VI rating” value (Setaria viridis [12]) was 5 (45-64%). For the same compound, the “ALO MY rating” value (Alopecurus myosuroides [13]) was 1 (1-5%), the “ZEA MX rating” value (Zea mays [14]) was 0 and the “TRZ AW rating” value (Triticum aestivum [15]) was 2 (6-15%). For the same compound, the “VER PE rating” value (Veronica persica [16]) was 0, the “CHE AL rating” value (Chenopodium album [17]) was 0 and the “HOR VW rating” value (Hordeum vulgare [18]) was 2 (6-15%). For the same compound, the “ABU TH rating” value (Abutilon theophrasti [19]) was 0, the “HEL AN rating” value (Helianthus annuus [20]) was 0 and the “GAL AP rating” value (Galium aparine [21]) was 2 (6-15%). The “AMA RE rating” value (Amaranthus retroflexus [22]) was 0, the “HOR VW rating” value (Hordeum vulgare [23]) was 0 and the “SET VI rating” value (Setaria viridis [24]) was 0.

`COc1ccc(-c2nsc(C(=O)NCc3cccs3)n2)cc1` [Example 36] was tested, and the “herbicide rating, TRZAW” value (Triticum aestivum [1]; [25]) was 0, the “herbicide rating, IPOHE” value (Ipomoea hederacea [2]; [25]) was 2 (6-15%) and the “herbicide rating, ZEAMX” value (Zea mays [3]; [25]) was 3 (16-29%). The “herbicide rating, VERPE” value (Veronica persica [4]; [25]) was 0, the “herbicide rating, CHEAL” value (Chenopodium album [5]; [25]) was 0 and the “herbicide rating, ABUTH” value (Abutilon theophrasti [6]; [25]) was 0. The “herbicide rating, HELAN” value (Helianthus annuus [7]; [25]) was 0, the “herbicide rating, GALAP” value (Galium aparine [8]; [25]) was 0 and the “herbicide rating, AMARE” value (Amaranthus retroflexus [9]; [25]) was 0. For the same compound, the “herbicide rating, ALOMY” value (Alopecurus myosuroides [10]; [25]) was 0, the “herbicide rating, IPOHE” value (Ipomoea hederacea [11]; rated after 10-21 days) was 3 (16-29%) and the “herbicide rating, SETVI” value (Setaria viridis [12]; rated after 10-21 days) was 7 (80-90%). The “herbicide rating, ALOMY” value (Alopecurus myosuroides [13]; rated after 10-21 days) was 3 (16-29%), the “herbicide rating, ZEAMX” value (Zea mays [14]; rated after 10-21 days) was 0 and the “herbicide rating, TRZAW” value (Triticum aestivum [15]; rated after 10-21 days) was 3 (16-29%). For the same compound, the “herbicide rating, VERPE” value (Veronica persica [16]; rated after 10-21 days) was 2 (6-15%), the “herbicide rating, CHEAL” value (Chenopodium album [17]; rated after 10-21 days) was 3 (16-29%) and the “herbicide rating, HORVW” value (Hordeum vulgare [18]; rated after 10-21 days) was 0. The “herbicide rating, ABUTH” value (Abutilon theophrasti [19]; rated after 10-21 days) was 1 (1-5%), the “herbicide rating, HELAN” value (Helianthus annuus [20]; rated after 10-21 days) was 4 (30-44%) and the “herbicide rating, GALAP” value (Galium aparine [21]; rated after 10-21 days) was 2 (6-15%). For the same compound, the “herbicide rating, AMARE” value (Amaranthus retroflexus [22]; rated after 10-21 days) was 2 (6-15%), the “herbicide rating, HORVW” value (Hordeum vulgare [23]; [25]) was 0 and the “herbicide rating, SETVI” value (Setaria viridis [24]; [25]) was 0.
